Measured values: US12077503B2, “Substituted cyclic amides and their use as herbicides” (FMC CORPORATION, priority 2015, dated 2024)

Assays:
Assay in all cases: Test C postemergence
Format in all cases: in vivo
Details in all cases: scale 0 to 100, 0 no effect, 100 complete control
[1] = tested on: ryegrass, Italian (Italian ryegrass, Lolium multiflorum)
How it was run: (§1)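 Scores of 0 to 100 reflect visual comparison with control plants, where 0 means no effect and 100 complete control, made 13 to 15 d after treatment. Application was preemergence to seeds in loam-sand soil or postemergence to plants 2 to 18 cm tall in peat-based mix, using a surfactant-containing solvent formulation.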

[2] = tested on: Galium (catchweed bedstraw, Galium aparine)
How it was run: as §1

corn (Zea mays) = tested on: corn (Zea mays)
How it was run: as §1

[3] = tested on: chickweed (common chickweed, Stellaria media)
How it was run: as §1

[4] = tested on: velvetleaf (Abutilon theophrasti)
How it was run: as §1

[5] = tested on: blackgrass (Alopecurus myosuroides)
How it was run: as §1

[6] = tested on: waterhemp (common waterhemp, Amaranthus rudis)
How it was run: as §1

[7] = tested on: ragweed (common ragweed, Ambrosia elatior)
How it was run: as §1

soybean (Glycine max) = tested on: soybean (Glycine max)
How it was run: as §1

[8] = tested on: wheat (winter wheat, Triticum aestivum)
How it was run: as §1

[9] = tested on: johnsongrass (Sorghum halepense)
How it was run: as §1

[10] = tested on: foxtail, giant (giant foxtail, Setaria faberii)
How it was run: as §1

[11] = tested on: pigweed (Amaranthus retroflexus)
How it was run: as §1

[12] = tested on: oat, wild (wild oat, Avena fatua)
How it was run: as §1

Kochia (Kochia scoparia) = tested on: Kochia (Kochia scoparia)
How it was run: as §1

[13] = tested on: barnyardgrass (Echinochloa crus-galli)
How it was run: as §1

[14] = tested on: crabgrass, large (large crabgrass, Digitaria sanguinalis)
How it was run: as §1

[15] = tested on: lambsquarters (Chenopodium album)
How it was run: as §1

O=C1NCC(c2ccc3c(c2)OC(F)(F)O3)C1C(=O)Nc1cccc(F)c1F (stereo not drawn) [Compound 635]
70: Plant response rating, Waterhemp ([6]; 250 g ai/ha) | Plant response rating, Ragweed ([7]; 125 g ai/ha) | Plant response rating, Crabgrass, Large ([14]; 250 g ai/ha)
75: Plant response rating, Pigweed ([11]; 125 g ai/ha) | Plant response rating, Pigweed ([11]; 250 g ai/ha) | Plant response rating, Lambsquarters ([15]; 31 g ai/ha) | Plant response rating, Lambsquarters ([15]; 125 g ai/ha)
55: Plant response rating, Galium ([2]; 250 g ai/ha) | Plant response rating, Waterhemp ([6]; 125 g ai/ha)
40: Plant response rating, Corn (corn (Zea mays); 250 g ai/ha) | Plant response rating, Blackgrass ([5]; 250 g ai/ha) | Plant response rating, Kochia (Kochia (Kochia scoparia); 31 g ai/ha)
90: Plant response rating, Chickweed ([3]; 250 g ai/ha)
25: Plant response rating, Ragweed ([7]; 31 g ai/ha)
5: Plant response rating, Corn (corn (Zea mays); 125 g ai/ha) | Plant response rating, Blackgrass ([5]; 125 g ai/ha) | Plant response rating, Soybean (soybean (Glycine max); 125 g ai/ha) | Plant response rating, Wheat ([8]; 250 g ai/ha) | Plant response rating, Johnsongrass ([9]; 125 g ai/ha) | Plant response rating, Johnsongrass ([9]; 250 g ai/ha) | Plant response rating, Oat, Wild ([12]; 250 g ai/ha)
10: Plant response rating, Velvetleaf ([4]; 125 g ai/ha) | Plant response rating, Soybean (soybean (Glycine max); 250 g ai/ha) | Plant response rating, Barnyardgrass ([13]; 62 g ai/ha)
15: Plant response rating, Ryegrass, Italian ([1]; 125 g ai/ha) | Plant response rating, Foxtail, Giant ([10]; 31 g ai/ha)
65: Plant response rating, Pigweed ([11]; 31 g ai/ha) | Plant response rating, Barnyardgrass ([13]; 125 g ai/ha) | Plant response rating, Barnyardgrass ([13]; 250 g ai/ha)
35: Plant response rating, Waterhemp ([6]; 31 g ai/ha)
0: Plant response rating, Ryegrass, Italian ([1]; 31 g ai/ha) | Plant response rating, Ryegrass, Italian ([1]; 62 g ai/ha) | Plant response rating, Corn (corn (Zea mays); 31 g ai/ha) | Plant response rating, Corn (corn (Zea mays); 62 g ai/ha) | Plant response rating, Velvetleaf ([4]; 31 g ai/ha) | Plant response rating, Velvetleaf ([4]; 62 g ai/ha) | Plant response rating, Blackgrass ([5]; 31 g ai/ha) | Plant response rating, Blackgrass ([5]; 62 g ai/ha) | Plant response rating, Soybean (soybean (Glycine max); 31 g ai/ha) | Plant response rating, Soybean (soybean (Glycine max); 62 g ai/ha) | Plant response rating, Wheat ([8]; 31 g ai/ha) | Plant response rating, Wheat ([8]; 62 g ai/ha) | Plant response rating, Wheat ([8]; 125 g ai/ha) | Plant response rating, Johnsongrass ([9]; 31 g ai/ha) | Plant response rating, Johnsongrass ([9]; 62 g ai/ha) | Plant response rating, Oat, Wild ([12]; 31 g ai/ha) | Plant response rating, Oat, Wild ([12]; 62 g ai/ha) | Plant response rating, Oat, Wild ([12]; 125 g ai/ha) | Plant response rating, Barnyardgrass ([13]; 31 g ai/ha)
50: Plant response rating, Galium ([2]; 31 g ai/ha) | Plant response rating, Galium ([2]; 62 g ai/ha) | Plant response rating, Foxtail, Giant ([10]; 125 g ai/ha) | Plant response rating, Kochia (Kochia (Kochia scoparia); 125 g ai/ha) | Plant response rating, Crabgrass, Large ([14]; 125 g ai/ha)
60: Plant response rating, Galium ([2]; 125 g ai/ha) | Plant response rating, Waterhemp ([6]; 62 g ai/ha) | Plant response rating, Ragweed ([7]; 62 g ai/ha) | Plant response rating, Foxtail, Giant ([10]; 250 g ai/ha) | Plant response rating, Pigweed ([11]; 62 g ai/ha) | Plant response rating, Kochia (Kochia (Kochia scoparia); 250 g ai/ha) | Plant response rating, Crabgrass, Large ([14]; 62 g ai/ha)
20: Plant response rating, Ryegrass, Italian ([1]; 250 g ai/ha) | Plant response rating, Kochia (Kochia (Kochia scoparia); 62 g ai/ha) | Plant response rating, Crabgrass, Large ([14]; 31 g ai/ha)
30: Plant response rating, Velvetleaf ([4]; 250 g ai/ha) | Plant response rating, Foxtail, Giant ([10]; 62 g ai/ha)
80: Plant response rating, Chickweed ([3]; 31 g ai/ha) | Plant response rating, Ragweed ([7]; 250 g ai/ha) | Plant response rating, Lambsquarters ([15]; 62 g ai/ha)
85: Plant response rating, Chickweed ([3]; 62 g ai/ha) | Plant response rating, Chickweed ([3]; 125 g ai/ha) | Plant response rating, Lambsquarters ([15]; 250 g ai/ha)
